Data: publication PMC6539903 (Molecules, 2019)

Experiments:
HepG2 = assay: MTT antiproliferation assay, HepG2; format: cell-based; details: Homo sapiens, 48 h, n = 3, read-out: IC50 ± SD HepG2
Procedure: (§1) MCF-7 (human breast cell line), HeLa (human cervical cell line), A549 (human lung cell line), HepG2 (human liver cell line), SW620 (human colorectal cell line) and a non-cancer cell line, NCM460 (Human colonic epithelial cells) were preserved at the State Key Laboratory of Pharmaceutical Biotechnology, Nanjing University (Nanjing, China).
(§2) The antiproliferative activity of the synthetic compounds against the SW620, MCF-7, HeLa, A549, HepG2, and NUM460 cell lines was evaluated by a colorimetric assay based on a modified standard (MTT). […] Thereafter, MTT (5 mg/mL in PBS) was added to each well and incubated for 4 h. 150 μL of DMSO was added to each well and shaken with a shaker. The absorbance (OD 570 nm) was read at 630 nm on an ELISA reader (ELx800, BioTek, montpelier, VT, USA). IC50 values for the compounds were calculated by comparison to DMSO treated control wells. Three replicate wells were used for each drug concentration. Each assay was performed three times.

SW620 cells = assay: MTT antiproliferation assay, SW620; format: cell-based; details: Homo sapiens, SW-620, 48 h, n = 3, read-out: IC50 ± SD SW620
Procedure: as §1, §2

[1] = MTT cytotoxicity assay, non-cancer colon cells; format: cell-based; details: human, NCM460 colonic epithelial cells (non-cancer cell line), n = 3, non-cancer cell line, read-out: CC50 ± SD NUM460
Procedure: Besides, the MTT assay was performed on a non-cancer line NCM460 to assess the cytotoxicity of the test compound to normal colon cells.
as §1, §2

COX-1 = biological target: T1, COX-1 (Homo sapiens, UniProt P23219); assay: COX-1 inhibition assay (COX-1 ELISA kit); format: biochemical; details: mean of four determinations; read-out: IC50 ± SD COX-1
T1 construct: purchased Cayman Chemical 701170
Procedure: (§3) 3-(4,5-Dimethylthiazol-2-yl)-2,5-diphenyltetrazolium (MTT) were purchased from Beyotime Institute of Biotechnology (Haimen, China). Annexcin V-FITC cell apoptosis assay kit (catalog No.BA11100) was purchased from BIO-BOX (Nanjing, China). Fibronectin (#F1056) and laminin (#L2020) were purchased from Sigma-Aldrich (St. Louis, MO, USA).
(§4) Then 1 M HCl was added to the reaction mixture to stop the reaction, and one-tenth of the volume of saturated stannous chloride (50 mg/mL) was added. The reaction mixture was incubated at room temperature for 5 min, and PGF2 and PGH2 were produced.

COX-2 = biological target: T2, COX-2 (Homo sapiens, UniProt P35354); assay: COX-2 inhibition assay (COX-2 ELISA kit); format: biochemical; details: for Selectivity Index (SI) (COX-1 IC50/COX-2 IC50): in vitro COX-2 selectivity index; for IC50: mean of four determinations, read-out: IC50 ± SD COX-2
T2 construct: purchased Cayman Chemical 701180
T2 sequence (P35354 18-604): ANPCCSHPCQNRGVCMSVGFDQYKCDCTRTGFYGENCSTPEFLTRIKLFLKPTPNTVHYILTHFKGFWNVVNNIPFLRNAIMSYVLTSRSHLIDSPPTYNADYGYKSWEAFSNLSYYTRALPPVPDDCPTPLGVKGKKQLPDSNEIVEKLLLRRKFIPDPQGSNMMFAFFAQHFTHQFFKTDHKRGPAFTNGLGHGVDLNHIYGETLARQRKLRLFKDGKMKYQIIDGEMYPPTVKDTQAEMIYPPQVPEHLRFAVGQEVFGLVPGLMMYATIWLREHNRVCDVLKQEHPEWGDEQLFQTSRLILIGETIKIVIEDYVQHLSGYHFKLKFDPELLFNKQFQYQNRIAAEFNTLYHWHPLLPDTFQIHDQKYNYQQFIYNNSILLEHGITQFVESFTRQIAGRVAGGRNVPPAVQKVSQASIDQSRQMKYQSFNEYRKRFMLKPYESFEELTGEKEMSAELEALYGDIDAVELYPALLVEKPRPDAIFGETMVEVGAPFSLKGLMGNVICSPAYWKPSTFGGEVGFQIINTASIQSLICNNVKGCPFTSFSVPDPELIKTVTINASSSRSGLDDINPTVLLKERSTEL
Procedure: as §3, §4

MCF-7 = assay: MTT antiproliferation assay, MCF-7; format: cell-based; details: Homo sapiens, MCF7, 48 h, n = 3, read-out: IC50 ± SD MCF-7
Procedure: as §1, §2

A549 = assay: MTT antiproliferation assay, A549; format: cell-based; details: Homo sapiens, 48 h, n = 3, read-out: IC50 ± SD A549
Procedure: as §1, §2

HeLa = assay: MTT antiproliferation assay, HeLa; format: cell-based; details: Homo sapiens, 48 h, n = 3, read-out: IC50 ± SD HeLa
Procedure: as §1, §2

T1 sequence (P23219 24-599): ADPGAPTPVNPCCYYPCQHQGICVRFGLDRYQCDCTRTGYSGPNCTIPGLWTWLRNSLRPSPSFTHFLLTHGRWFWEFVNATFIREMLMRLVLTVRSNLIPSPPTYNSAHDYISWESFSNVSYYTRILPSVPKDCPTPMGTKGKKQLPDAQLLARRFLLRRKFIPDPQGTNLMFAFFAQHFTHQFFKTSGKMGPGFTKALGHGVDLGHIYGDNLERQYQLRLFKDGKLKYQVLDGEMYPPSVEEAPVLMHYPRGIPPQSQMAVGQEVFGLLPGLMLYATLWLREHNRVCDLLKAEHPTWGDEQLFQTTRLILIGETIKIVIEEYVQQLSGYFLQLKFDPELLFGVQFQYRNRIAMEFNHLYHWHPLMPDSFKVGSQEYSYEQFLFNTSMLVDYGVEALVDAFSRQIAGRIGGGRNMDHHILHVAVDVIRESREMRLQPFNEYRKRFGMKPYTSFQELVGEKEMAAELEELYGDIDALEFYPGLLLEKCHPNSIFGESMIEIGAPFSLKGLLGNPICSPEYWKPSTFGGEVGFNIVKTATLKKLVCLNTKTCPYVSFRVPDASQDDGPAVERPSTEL

SMILES	IC50 (HepG2) [µM]	IC50 (SW620 cells) [µM]	melting point [°C]	CC50 at 48 h [1] [µM]	IC50 (COX-1) [µM]	Selectivity Index (SI) (COX-1 IC50/COX-2 IC50) (COX-2)	IC50 (COX-2) [µM]	IC50 (MCF-7) [µM]	IC50 (A549) [µM]	IC50 (HeLa) [µM]
NS(=O)(=O)c1ccc(N2N=C(c3ccccc3)CC2c2ccc3c(c2)OCO3)cc1 (centres unmarked) [Compound 4a, 4-(5-(Benzo[d][1,3]dioxol-5-yl)-3-phenyl-4,5-dihydro-1H-pyrazol-1-yl)benzenesulfonamide]	7.64 ± 0.57	3.38 ± 0.27	212 to 214	88.6 ± 3.96	> 60	>44.44	1.35 ± 0.08	5.77 ± 0.39	3.54 ± 0.19	6.32 ± 0.55
CCOc1ccc(C2=NN(c3ccc(S(N)(=O)=O)cc3)C(c3ccc4c(c3)OCO4)C2)cc1 (centres unmarked) [Compound 4c, 4-(5-(Benzo[d][1,3]dioxol-5-yl)-3-(4-ethoxyphenyl)-4,5-dihydro-1H-pyrazol-1-yl)benzenesulfonamide]	13.7 ± 0.93	5.07 ± 0.26	182 to 184	159 ± 11.4	21.11 ± 0.19	10.45	2.02 ± 0.13	8.31 ± 0.67	6.93 ± 0.17	9.37 ± 0.9
NS(=O)(=O)c1ccc(N2N=C(c3ccc(I)cc3)CC2c2ccc3c(c2)OCO3)cc1 (centres unmarked) [Compound 4d, 4-(5-(Benzo[d][1,3]dioxol-5-yl)-3-(4-iodophenyl)-4,5-dihydro-1H-pyrazol-1-yl)benzenesulfonamide]	6.42 ± 0.25	3.04 ± 0.17	212 to 214	74.5 ± 5.23	25.84 ± 0.21	21.53	1.2 ± 0.05	5.26 ± 0.42	2.86 ± 0.06	5.71 ± 0.47
Cc1cccc(C2=NN(c3ccc(S(N)(=O)=O)cc3)C(c3ccc4c(c3)OCO4)C2)c1 (centres unmarked) [Compound 4e, 4-(5-(Benzo[d][1,3]dioxol-5-yl)-3-(m-tolyl)-4,5-dihydro-1H-pyrazol-1-yl)benzenesulfonamide]	9.44 ± 0.74	3.88 ± 0.36	187 to 188	110 ± 7.71	29.77 ± 0.23	19.20	1.55 ± 0.06	6.52 ± 0.46	4.54 ± 0.18	7.22 ± 0.65
Cc1ccc(C2=NN(c3ccc(S(N)(=O)=O)cc3)C(c3ccc4c(c3)OCO4)C2)cc1C (centres unmarked) [Compound 4f, 4-(5-(Benzo[d][1,3]dioxol-5-yl)-3-(3,4-dimethylphenyl)-4,5-dihydro-1H-pyrazol-1-yl)benzenesulfonamide]	11.2 ± 1.03	4.34 ± 0.33	179 to 180	129 ± 8.96	58.14 ± 0.47	33.61	1.73 ± 0.11	7.21 ± 0.62	5.49 ± 0.44	8.05 ± 0.77
COc1cccc(C2=NN(c3ccc(S(N)(=O)=O)cc3)C(c3ccc4c(c3)OCO4)C2)c1 (centres unmarked) [Compound 4g, 4-(5-(Benzo[d][1,3]dioxol-5-yl)-3-(3-methoxyphenyl)-4,5-dihydro-1H-pyrazol-1-yl)benzenesulfonamide]	18.2 ± 1.15	7.99 ± 0.56	219 to 221	211 ± 18.2	> 60	>18.87	3.18 ± 0.26	12.7 ± 0.89	9.42 ± 0.74	14.6 ± 0.96
NS(=O)(=O)c1ccc(N2N=C(c3cccc(F)c3)CC2c2ccc3c(c2)OCO3)cc1 (centres unmarked) [Compound 4h, 4-(5-(Benzo[d][1,3]dioxol-5-yl)-3-(3-fluorophenyl)-4,5-dihydro-1H-pyrazol-1-yl)benzenesulfonamide]	7.14 ± 0.66	3.24 ± 0.18	192 to 193	82.8 ± 7.59	52.91 ± 0.39	41.33	1.28 ± 0.07	5.56 ± 0.38	3.26 ± 0.29	6.07 ± 0.41
Cc1ccc(C2=NN(c3ccc(S(N)(=O)=O)cc3)C(c3ccc4c(c3)OCO4)C2)c(C)c1 (centres unmarked) [Compound 4i, 4-(5-(Benzo[d][1,3]dioxol-5-yl)-3-(2,4-dimethylphenyl)-4,5-dihydro-1H-pyrazol-1-yl)benzenesulfonamide]	13.3 ± 0.89	4.96 ± 0.38	180 to 182	155 ± 12.7	> 60	>30.30	1.98 ± 0.15	8.14 ± 0.69	6.71 ± 0.57	9.16 ± 0.37
NS(=O)(=O)c1ccc(N2N=C(c3ccccc3F)CC2c2ccc3c(c2)OCO3)cc1 (centres unmarked) [Compound 4j, 4-(5-(Benzo[d][1,3]dioxol-5-yl)-3-(2-fluorophenyl)-4,5-dihydro-1H-pyrazol-1-yl)benzenesulfonamide]	11.8 ± 0.96	4.54 ± 0.29	180 to 181	137 ± 12.7	> 60	>33.15	1.81 ± 0.09	7.51 ± 0.57	5.86 ± 0.36	8.41 ± 0.29
NS(=O)(=O)c1ccc(N2N=C(c3ccccc3)CC2c2ccc3c(c2)OCCO3)cc1 (centres unmarked) [Compound 4k, 4-(5-(2,3-Dihydrobenzo[b][1,4]dioxin-6-yl)-3-phenyl-4,5-dihydro-1H-pyrazol-1-yl)benzenesulfonamide]	11.9 ± 0.91	4.56 ± 0.14	156 to 157	138 ± 11	> 60	>32.97	1.82 ± 0.16	7.54 ± 0.42	5.92 ± 0.31	8.44 ± 0.48
NS(=O)(=O)c1ccc(N2N=C(c3cccc(Cl)c3Cl)CC2c2ccc3c(c2)OCCO3)cc1 (centres unmarked) [Compound 4x, 4-(3-(2,3-Dichlorophenyl)-5-(2,3-dihydrobenzo[b][1,4]dioxin-6-yl)-4,5-dihydro-1H-pyrazol-1-yl)benzenesulfonamide]			171 to 173							
